The record followed here is ChEMBL document CHEMBL1130960, “QSAR study of the peptidic fibrinogen inhibitors FK633, FR158999 and related derivatives, using a novel and useful hydrophobic descriptor (logPmw)” (Bioorg Med Chem Lett, 1998).

Molecules are shown by their SMILES.

The assay can be described thus: Inhibition of binding to fibrinogen receptor.
In the case of `CCN(CC)C(=O)[C@@H](NC(=O)[C@H](CC(=O)O)NC(=O)CCCOc1ccc(C(=N)N)cc1)C(C)C`, the “Log IC50” value was -6.6.
In the case of `N=C(N)c1ccc(OCCCCC(=O)NC(CC(=O)O)C(=O)NC(Cc2ccc(O)cc2)C(=O)O)cc1` (stereo unspecified), the “Log IC50” value is -6.19.
For `CCc1ccc(OCCNC(=O)C(CC(=O)O)NC(=O)CCCOc2ccc(C(=N)N)cc2)cc1` (stereo unspecified), the “Log IC50” value is listed as -6.5.
The value for `CC(C)c1ccc(OCCNC(=O)C(CC(=O)O)NC(=O)CCCOc2ccc(C(=N)N)cc2)cc1` (stereo unspecified) was -6.4; that for `COC(=O)C(Cc1ccc(O)cc1)NC(=O)C(CC(=O)O)NC(=O)CCCCOc1ccc(C(=N)N)cc1` (stereo unspecified) was -5.35; that for `CCCCC(NC(=O)C(CC(=O)O)NC(=O)CCCOc1ccc(C(=N)N)cc1)C(=O)O` (stereo unspecified) was -7.12.
The value for `CC(C)[C@H](NC(=O)[C@H](CC(=O)O)NC(=O)CCCOc1ccc(C(=N)N)cc1)C(=O)N1CCOCC1` was -7.1; that for `CC[C@H](C)[C@H](NC(=O)[C@H](CC(=O)O)NC(=O)CCCOc1ccc(C(=N)N)cc1)C(=O)O` was -6.85.
The value for `CC(C)CC(NC(=O)C(CC(=O)O)NC(=O)CCCOc1ccc(C(=N)N)cc1)C(=O)O` (stereo unspecified) was -6.87; that for `COc1ccc(CC(NC(=O)C(CC(=O)O)NC(=O)CCCOc2ccc(C(=N)N)cc2)C(=O)O)cc1` (stereo unspecified) was -6.89; that for `CC(C)C(C)NC(=O)C(CC(=O)O)NC(=O)CCCOc1ccc(C(=N)N)cc1` (stereo unspecified) was -5.9.
Turning to `COc1ccc(CC(NC(=O)C(CC(=O)O)NC(=O)CCCCOc2ccc(C(=N)N)cc2)C(=O)O)cc1` (stereo unspecified), the “Log IC50” value was -6.57.
`N=C(N)c1ccc(OCCCCC(=O)NC(CC(=O)O)C(=O)NC(CO)C(=O)O)cc1` (stereo unspecified): the “Log IC50” value is -4.92.
The value for `CC(C)[C@H](NC(=O)[C@H](CC(=O)O)NC(=O)CCCOc1ccc(C(=N)N)cc1)C(=O)N1CCS(=O)(=O)CC1` was -7.5; that for `CC(C)C(NC(=O)C(CC(=O)O)NC(=O)CCCOc1ccc(C(=N)N)cc1)C(=O)O` (stereo unspecified) was -6.96.
The value for `Cc1ccc(OCCNC(=O)C(CC(=O)O)NC(=O)CCCOc2ccc(C(=N)N)cc2)cc1C` (stereo unspecified) was -6.3.
The value for `CC(C)C(NC(=O)C(CC(=O)O)NC(=O)CCCCOc1ccc(C(=N)N)cc1)C(=O)O` (stereo unspecified) was -6.64.
Regarding `CC(C)[C@H](NC(=O)[C@H](CC(=O)O)NC(=O)CCCOc1ccc(C(=N)N)cc1)C(N)=O`, the “Log IC50” value is listed as -6.2.
Consider `N=C(N)c1ccc(OCCCC(=O)NC(CC(=O)O)C(=O)NC(Cc2ccc(O)cc2)C(=O)O)cc1` (stereo unspecified), for which the “Log IC50” value is -6.8.
For the molecule `CC(C)(C)CC(NC(=O)C(CC(=O)O)NC(=O)CCCOc1ccc(C(=N)N)cc1)C(=O)O` (stereo unspecified), the “Log IC50” value is on record as -6.64.
The value for `CC(C)[C@H](NC(=O)[C@H](CC(=O)O)NC(=O)CCCOc1ccc(C(=N)N)cc1)C(=O)NC1CCCCC1` was -6.7.
